According to US20050090451A1, “Treatment of cancer with glutamine” (priority 2002, published 2005):
In brackets after ≈: the same amount, converted by molar mass. Like-named read-outs stand apart in the source and are kept apart here. Blank lines part the entries; values can stand above or below the compound they belong to. Square brackets hold non-standard residues; d marks the D form. Peptide text beside a SMILES is read from it. Sar = CNCC(=O)O

Legend:
[1] = system: gut glutathione (GSH) production; experiment: Gut GLN and GSH fluxes in DMBA-treated rats; assay type: in vivo, Sprague-Dawley rats; details: 20 mg DMBA gavage; 1 week after DMBA; FIG. 15
Procedure: Methods: 80 Sprague-Dawley rats were randomized to 4 groups (n=20/group): DMBA+GLN, DMBA+FA, OIL+GLN, OIL+FA. Rats (age 50 days) were gavaged with a 1-time dose of 20 mg DMBA or oil. Rats were gavaged with AES-14 (1 gm GLN/kg/day) or an isonitrogenous amount of Freamine (FA) from 1 week before till sacrifice at 1 week after DMBA (greatest effect on gut GSH extraction). Arterial and portal blood was taken for GLN and GSH levels, and blood flow measured using 14-C-PAH. Gut GLN and GSH fluxes (uptake or production) were calculated.

[2] = system: GSH transport in jejunal basolateral membrane vesicles (BLMV); experiment: [3H]Glutathione uptake in jejunal basolateral membrane vesicles after DMBA; assay type: in vivo, Sprague-Dawley rats; details: 100 mg/kg DMBA single dose; one week after; FIG. 26
Procedure: Methods: The transport of GSH in the jejunal basolateral membrane vesicles (BLMV) was investigated in Sprague-Dawley rats treated with a single dose of 100 mg/kg DMBA (n=15) or sesame oil (n=15) as controls. The animals were pair-fed pre-defined chow and were given water ad libitum. All rats were sacrificed one week after the DMBA administration. Jejunal basolateral membrane vesicles (BLMV) were prepared using Percoll Colloidal PVP coated silica differential centrifugation technique. All steps were carried out at 2-4° C. Jejunal mucosal scraping was homogenized in isolation buffer containing 180 mM sucrose/2 mM Tris being adjusted to pH 7.40 by 2 mM Hepes using a Polytron homogenizer (Brinkman, Rexdale, ON), at setting 2 to 6 then 6 to 2, over 55 seconds. The homogenate was centrifuges for 10 minutes at 1000 g. The supernatant was filtered through four layers gauze and recollected. The supernatant containing basolateral membrane material then was centrifuged 15 minutes at 22,000 g. […] Protein concentration was determined by the Bio-Rad protein assay (Bio-Rad Laboratories, Hercules, Calif.).
The uptake of [^3H]Glutathione was measured by a rapid mixing/filtration technique. […] All vials were counted with liquid scintillation system LS 1801 (Beckman coulter, Fullerton, Calif.).

[3] = Portal blood and gut mucosa GSH after DMBA; assay type: in vivo, Sprague-Dawley rats; details: 100 mg/kg DMBA, one week after
[4] = system: natural killer (NK) cell cytotoxicity; experiment: NK cell cytotoxicity, 51-Chromium release assay with YAC-1; assay type: in vivo, rats; details: only at week 1 and week 11; FIG. 31
Procedure: Rats were treated as in Example 5.
NK cell cytotoxicity was measured as follows: Aseptically removed spleens were minced using a sterile scalpel, and lymphocytes were teased from the splenic capsule with warm RPMI 1640 (Gibco BRL, Life Technologies Inc., Grand Island, N.Y.). The resulting cells were poured into 50 ml conical tubes, which were filled with ammonium chloride (0.83%) (Sigma Chemical Co., St. Louis, Mo.) to lyse the red cells. The cell solution was then centrifuged for 10 minutes at 1000 rpm. The supernatant was decanted, and the cell pellet was vortexed with RPMI (no GLN) and centrifuged again. Next, the cells were resuspended in approximately 10 ml of RPMI containing 10% fetal bovine serum […] (Gibco BRL, Life Technologies Inc., Grand Island, N.Y.) supplemented with 1% GLN. This cell suspension was placed in Petri dishes and incubated in 6% CO2 at 37° C. for 30 minutes. After incubation to assure adherence of the monocytes, the nonadherent lymphocytes were counted (1:1 with crystal violet stain). Approximately 7×10^6 total cells from each spleen were incubated for 3 days in RPMI containing 10% FBS and recombinant human IL-2 (500 U/ml). […] The calculation of the NK activity is expressed as the following equation: [formula]

Caco-2 cell monolayers [5] = system: Caco-2 cell monolayers
Procedure: (§1) Uptake and permeability of each compound was measured in the apical-to-basolateral direction, with and without vehicle.
(§2) Each compound was tritiated. ^14C-mannitol was used as an evaluation of monolayer/cell integrity (i.e. as a low uptake/permeability marker).
(§3) Uptake and Permeability Assessments. Compound cellular uptake into and permeability across Caco-2 monolayers was measured.
(§4) HBSS was used when no pharmaceutical vehicle was present for each of the four compounds. […] Monolayer integrity was monitored using ^14C-mannitol permeability. Mannitol uptake was also studied.
(§5) Uptake and permeability studies were conducted using Transwelle inserts in the apical to basolateral direction, at intervals of 10 sec., 60 sec., and 5 min.
(§6) ^14C-mannitol and ^3H-drugs were quantified by liquid scintillation counting. For uptake studies, at designated time points (10 sec, 60 sec, and 5 min), the donor solution was aspirated off. The cell monolayer was washed twice with ice cold HBSS to remove any residual binding and then dissolved in 1 ml of the cell solubilizing agent, Solvable®. The cell lysate (0.5 ml) was added to 5 ml scintillation cocktail (Econosafe®) and counted on liquid scintillation counter (Beckman LS5801, Columbia, Md.). For permeability studies, 0.5 ml of received solution was added to 5 ml scintillation cocktail (Econosafe®) and counted on liquid scintillation counter.

Caco-2 cell monolayers [6] = system: Caco-2 cell monolayers; remark: listed apart in the source
Procedure: (§7) Compound cellular uptake into and permeability across Caco-2 monolayers was measured.
(§8) Monolayer integrity was monitored using ^14C-mannitol permeability. Mannitol uptake was also studied.
as §5, §6
(§9) Permeability is an absolute measure (units of cm/Sec or velocity) and can be determined even though the absolute drug concentrations were not known.

[7] = system: human gastrointestinal epithelial cell line (CaCo); experiment: Cellular glutamine uptake in CaCo cells (HPLC); assay type: cell-based
Procedure: Both samples were allowed to stand for 1 day at room temperature. The supernatant was decanted from the residue and used for the cellular uptake determination.
On Day 1, cells from a human gastrointestinal epithelial cell line (CaCo) were plated at a density of 0.5×10^6 cells per well in a 6-well tissue culture dish.
At time points 0, 10, 20, 40, and 60 seconds the test material was aspirated and the cells washed three times (3×) with chilled (4° C.) phosphate buffered saline (PBS), followed by the addition of 1.0 ml of perchloric acid. Cells were harvested by scraping, then aspiration by pipet into a 1.7 ml tube.
The harvested cells were sonicated for 10 seconds, and 500 μl of sonicated cells were transferred into a 1.7 ml tube. The perchloric acid was neutralized by the addition of 130 μl of 2M KHCO3, and the resulting mixture was frozen overnight at −80° C.
Upon thawing, the sample was centrifuged for 10 minutes at 14,000 rpm and the supernatants were transferred to new 1.7 ml tubes and frozen at −80° C. The resulting clarified samples were thawed and diluted 1:3 with deionized water. […] After incubation for two minutes at room temperature, a 20 μl sample was injected on a Hypersil® C18 Elite 5 μm HPLC column using 70:30 acetonitrile:water as the mobile phase. Glutamine levels, measured as μg/ml, were detected at 340 nm.

[8] = The Merck Index, cited from earlier work
tumor = details: cited from earlier work
in vitro = details: human, Caco-2, Mannitol Permeability with Vehicle
Procedure: as §7, §8, §5, §6, §9

Caco-2 cell monolayers [9] = experiment: Caco-2 permeability, apical-to-basolateral; details: Aesgen-14 vehicle vs no vehicle; saturated solutions; 5 minute period; FIGS. 8-11
Procedure: as §7, §8, §5, §6, §9

Caco-2 cell monolayers [10] = experiment: Relative cellular uptake into Caco-2 monolayers, vehicle vs non-vehicle; details: saturated solutions; AES-14 vehicle vs HBSS; FIGS. 3-6
Procedure: as §1, §2, §3, §4, §5, §6

SMILES: Cc1c2ccccc2c(C)c2c1ccc1ccccc12 [DMBA, 7,12-dimethylbenz[a]anthracene]
effect on gut GLN metabolism [1]: not affecting | effect on normal gut GSH production (negative flux) [1]: abrogated | decrease of the rate of total GSH uptake by BLMV vs control group [2]: 42% | decrease of portal blood GSH concentration ([3]; FIG. 27): 34% | increase of gut mucosa GSH ([3]; FIG. 28): two-fold | NK cell activity vs non-DMBA controls [4]: lower

SMILES: OC[C@@H](O)[C@@H](O)[C@H](O)[C@H](O)CO [Mannitol, mannitol]
effect of vehicle on mannitol relative uptake (Caco-2 cell monolayers [5]): no effect | Mannitol Permeability with Vehicle (Caco-2 cell monolayers [6]): Below LOQ | Mannitol Permeability without Vehicle (Caco-2 cell monolayers [6]): Below LOQ | effect of vehicle on mannitol permeability (Caco-2 cell monolayers [6]): no effect | Papp A→B at 5 min (in vitro): 0.916 ×10⁻⁶ cm/s

SMILES: Nc1nc2c(ncn2COCCO)c(=O)[nH]1 [acyclovir]
effect of vehicle on permeability (Caco-2 cell monolayers [6]): no effect

Second part, led by results:

enhancement of cellular drug uptake by vehicle (relative uptake vehicle vs non-vehicle) (Caco-2 cell monolayers [5]): about four-fold | effect of vehicle on permeability (Caco-2 cell monolayers [6]): no effect
SMILES: NC(=O)C[C@H](N)C(=O)O [L-asparagine]

mean cellular glutamine uptake ([7]; normal cells, incubation time 0 seconds): 3.53 µg/mL | mean cellular glutamine uptake ([7]; normal cells, incubation time 10 seconds): 10.30 µg/mL | mean cellular glutamine uptake ([7]; normal cells, incubation time 20 seconds): 2.48 µg/mL | mean cellular glutamine uptake ([7]; normal cells, incubation time 40 seconds): 3.23 µg/mL | mean cellular glutamine uptake ([7]; normal cells, incubation time 60 seconds): 4.85 µg/mL | mean cellular glutamine uptake ([7]; starved cells (L-glutamine deficient medium), incubation time 0 seconds): 1.33 µg/mL | mean cellular glutamine uptake ([7]; starved cells, incubation time 10 seconds): 1.43 µg/mL | mean cellular glutamine uptake ([7]; starved cells, incubation time 20 seconds): 1.49 µg/mL | mean cellular glutamine uptake ([7]; starved cells, incubation time 40 seconds): 2.23 µg/mL | mean cellular glutamine uptake ([7]; starved cells, incubation time 60 seconds): 49.96 µg/mL | enhancement of cellular uptake by vehicle (Caco-2 cell monolayers [5]): enhanced | effect of vehicle on permeability (Caco-2 cell monolayers [6]): no effect
SMILES: NC(=O)CC[C@H](N)C(=O)O [L-glutamine]
solubility in water ([8]; 0° C.): 18 mg/mL (≈ 123 mM) | solubility in water ([8]; 18° C.): 26 mg/mL (≈ 178 mM) | solubility in water ([8]; 30° C.): 48 mg/mL (≈ 328 mM) | tumor volume loss when glutamine was added to the diet (tumor; rats receiving methotrexate, Klimberg 1992): nearly doubled | decrease of tumor growth (tumor; rats, glutamine by gavage or as a food additive, within three weeks, Fahr 1994): 40%

effect of vehicle on permeability (Caco-2 cell monolayers [9]): no effect
SMILES: CN(CC(=O)O)C(=O)CN [glycylsarcosine] (H-Gly-[Sar]-OH)
enhancement of cellular drug uptake by vehicle (relative uptake vehicle vs non-vehicle) (Caco-2 cell monolayers [10]): about four-fold
